# According to patent US10131652B2, “Pyrimidinyloxy benzene derivatives as herbicides” (E. I. DU PONT DE NEMOURS AND COMPANY, priority 2014, dated 2018):
# How the values were obtained:
# Type in all cases: in vivo
# [1] = tested on: Italian ryegrass (Lolium multiflorum); experiment: Test B pre-/postemergence plant response
# How it was run: (§1)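 Seeds in loam–sand blend given preemergence soil spray; separately, plants at one- to two-leaf stage (2–10 cm) sprayed postemergence, compounds in non-phytotoxic solvent with surfactant. Injury rated visually versus untreated controls after ~10 days in greenhouse, 0 (no effect) to 100 (complete control).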
# kochia (Kochia scoparia) = experiment: Test B pre-/postemergence plant response
# How it was run: as §1
# [2] = tested on: ragweed (common ragweed, Ambrosia elatior); experiment: Test B pre-/postemergence plant response
# How it was run: as §1
# [3] = tested on: blackgrass (Alopecurus myosuroides); experiment: Test D pre-/postemergence plant response
# How it was run: (§2)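 Seeds sown in loam–sand blend got preemergence sprays of test chemicals in a non-phytotoxic solvent with surfactant; postemergence sprays went on plants at 1- to 4-leaf stage (2 to 18 cm) in peat/vermiculite medium. After 13 to 15 days in greenhouse, visual injury versus controls scored 0 (no effect) to 100 (complete control).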
# [4] = tested on: oilseed rape (Brassica napus); experiment: Test D pre-/postemergence plant response
# How it was run: as §2
# [5] = tested on: johnsongrass (Sorghum halepense); experiment: Test D pre-/postemergence plant response
# How it was run: as §2
# [6] = tested on: giant foxtail (Setaria faberii); experiment: Test D pre-/postemergence plant response
# How it was run: as §2
# [7] = tested on: barnyardgrass (Echinochloa crus-galli); experiment: Test D pre-/postemergence plant response
# How it was run: as §2
# [8] = tested on: pigweed (Amaranthus retroflexus); experiment: Test D pre-/postemergence plant response
# How it was run: as §2
# [9] = tested on: velvetleaf (Abutilon theophrasti); experiment: Test D pre-/postemergence plant response
# How it was run: as §2
# [10] = tested on: small-flower umbrella sedge (Cyperus difformis); experiment: Test C flooded paddy test plant response; settings: Flood, 250 g ai/ha; scale of 0 to 100 where 0 is no effect and 100 is complete control; 13 to 15 days
# How it was run: (§3)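 Plants grown to 2-leaf stage, flooded 3 cm above soil; compounds applied directly into paddy water, depth kept throughout. Visual rating versus controls after 13 to 15 days in greenhouse, 0 (no effect) to 100 (complete control).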
# rice (Oryza sativa) = experiment: Test C flooded paddy test plant response; settings: Flood, 250 g ai/ha; scale of 0 to 100 where 0 is no effect and 100 is complete control; 13 to 15 days
# How it was run: as §3
# [11] = tested on: barnyardgrass (Echinochloa crus-galli); experiment: Test C flooded paddy test plant response; settings: Flood, 250 g ai/ha; scale of 0 to 100 where 0 is no effect and 100 is complete control; 13 to 15 days
# How it was run: as §3
# [12] = tested on: ducksalad (Heteranthera limosa); experiment: Test C flooded paddy test plant response; settings: Flood, 250 g ai/ha; scale of 0 to 100 where 0 is no effect and 100 is complete control; 13 to 15 days
# How it was run: as §3
# [13] = 31 g ai/ha, Postemergence, 0 to 100 scale, 0 no effect, 100 complete control
# [14] = 31 g ai/ha, Preemergence, 0 to 100 scale where 0 is no effect and 100 is complete control
# [15] = 125 g ai/ha, postemergence, 0 to 100 scale, 0 no effect, 100 complete control
# [16] = Preemergence, 125 g ai/ha, 0 to 100 scale where 0 is no effect and 100 is complete control
# [17] = Postemergence, 16 g ai/ha, scale 0 to 100 (0 no effect, 100 complete control)
# [18] = Postemergence, 31 g ai/ha, scale 0 to 100 (0 no effect, 100 complete control)
# [19] = Postemergence, 62 g ai/ha, scale 0 to 100, 0 no effect, 100 complete control
# [20] = Postemergence, 125 g ai/ha, scale 0 to 100, 0 no effect, 100 complete control
# [21] = Preemergence, 16 g ai/ha, scale 0 to 100 (0 no effect, 100 complete control)
# [22] = Preemergence, 31 g ai/ha, scale 0 to 100 (0 no effect, 100 complete control)
# [23] = Preemergence, 62 g ai/ha, scale 0 to 100 (0 no effect, 100 complete control)
# [24] = Preemergence, 125 g ai/ha, 0 to 100 scale (0 no effect, 100 complete control)
smiles,measurement,setting,value
FC(F)c1cc(-c2c(Cl)cccc2Oc2ncc(Cl)cn2)on1 [Compound 120],"Plant response rating, Ryegrass, Italian",[1]; [13],30
same,"Plant response rating, Ryegrass, Italian",[1]; [14],40
same,"Plant response rating, Ryegrass, Italian",[1]; [15],90
same,"Plant response rating, Kochia",kochia (Kochia scoparia); [13],90
same,"Plant response rating, Kochia",kochia (Kochia scoparia); [14],80
same,"Plant response rating, Kochia",kochia (Kochia scoparia); [15],90
same,"Plant response rating, Kochia",kochia (Kochia scoparia); [16],90
same,"Plant response rating, Ragweed",[2]; [13],40
same,"Plant response rating, Ragweed",[2]; [14],10
same,"Plant response rating, Ragweed",[2]; [15],70
same,Blackgrass plant response rating,[3]; [17],20
same,Blackgrass plant response rating,[3]; [18],35
same,"Plant response rating, Blackgrass",[3]; [19],60
same,"Plant response rating, Blackgrass",[3]; [20],55
same,"Plant response rating (scale 0 to 100), Blackgrass","[3]; Preemergence, 125 g ai/ha",90
same,"Plant response rating, Blackgrass",[3]; [21],70
same,"Plant response rating, Blackgrass",[3]; [22],60
same,"Plant response rating, Blackgrass",[3]; [23],90
same,Oilseed Rape plant response rating,[4]; [17],80
same,Oilseed Rape plant response rating,[4]; [18],85
same,"Plant response rating, Oilseed Rape",[4]; [19],90
same,"Plant response rating, Oilseed Rape",[4]; [20],95
same,"Plant response rating (scale 0 to 100), Oilseed Rape","[4]; Preemergence, 125 g ai/ha",100
same,"Plant response rating, Oilseed Rape",[4]; [21],50
same,"Plant response rating, Oilseed Rape",[4]; [22],90
same,"Plant response rating, Oilseed Rape",[4]; [23],95
same,Johnsongrass plant response rating,[5]; [17],5
same,Johnsongrass plant response rating,[5]; [18],30
same,"Plant response rating, Johnsongrass",[5]; [19],40
same,"Plant response rating, Johnsongrass",[5]; [20],85
same,"Plant response rating (scale 0 to 100), Johnsongrass","[5]; Preemergence, 125 g ai/ha",98
same,"Plant response rating, Johnsongrass",[5]; [21],50
same,"Plant response rating, Johnsongrass",[5]; [22],55
same,"Plant response rating, Johnsongrass",[5]; [23],95
same,"Foxtail, Giant plant response rating",[6]; [17],10
same,"Foxtail, Giant plant response rating",[6]; [18],10
same,"Plant response rating, Foxtail, Giant",[6]; [19],15
same,"Plant response rating, Foxtail, Giant",[6]; [20],25
same,"Plant response rating (scale 0 to 100), Foxtail, Giant","[6]; Preemergence, 125 g ai/ha",100
same,"Plant response rating, Foxtail, Giant",[6]; [21],95
same,"Plant response rating, Foxtail, Giant",[6]; [22],98
same,"Plant response rating, Foxtail, Giant",[6]; [23],98
same,Barnyardgrass plant response rating,[7]; [17],10
same,Barnyardgrass plant response rating,[7]; [18],15
same,"Plant response rating, Barnyardgrass",[7]; [19],25
same,"Plant response rating, Barnyardgrass",[7]; [20],40
same,"Plant response rating (scale 0 to 100), Barnyardgrass","[7]; Preemergence, 62 g ai/ha",90
same,"Plant response rating (scale 0 to 100), Barnyardgrass","[7]; Preemergence, 125 g ai/ha",100
same,"Plant response rating, Barnyardgrass",[7]; [21],25
same,"Plant response rating, Barnyardgrass",[7]; [22],75
same,Pigweed plant response rating,[8]; [17],98
same,Pigweed plant response rating,[8]; [18],100
same,"Plant response rating, Pigweed",[8]; [19],100
same,"Plant response rating, Pigweed",[8]; [20],100
same,"Plant response rating (scale 0 to 100), Pigweed","[8]; Preemergence, 125 g ai/ha",100
same,"Plant response rating, Pigweed",[8]; [21],100
same,"Plant response rating, Pigweed",[8]; [22],100
same,"Plant response rating, Pigweed",[8]; [23],100
same,Velvetleaf plant response rating,[9]; [17],70
same,Velvetleaf plant response rating,[9]; [18],85
same,"Plant response rating, Velvetleaf",[9]; [19],100
same,"Plant response rating, Velvetleaf",[9]; [20],100
same,"Plant response rating (scale 0 to 100), Velvetleaf","[9]; Preemergence, 125 g ai/ha",100
same,"Plant response rating, Velvetleaf",[9]; [21],50
same,"Plant response rating, Velvetleaf",[9]; [22],75
same,"Plant response rating, Velvetleaf",[9]; [23],100
same,"Sedge, Umbrella plant response rating",[10],95
same,Rice plant response rating,rice (Oryza sativa),90
same,Barnyardgrass plant response rating,[11],90
same,Ducksalad plant response rating,[12],100
FC(F)c1cc(-c2c(Cl)cccc2Oc2ncc(Br)cn2)on1 [Compound 121],"Plant response rating, Ryegrass, Italian",[1]; [13],50
same,"Plant response rating, Ryegrass, Italian",[1]; [14],30
same,"Plant response rating, Ryegrass, Italian",[1]; [15],70
same,"Plant response rating, Kochia",kochia (Kochia scoparia); [13],90
same,"Plant response rating, Kochia",kochia (Kochia scoparia); [14],60
same,"Plant response rating, Kochia",kochia (Kochia scoparia); [15],90
same,"Plant response rating, Kochia",kochia (Kochia scoparia); [16],100
same,"Plant response rating, Ragweed",[2]; [13],50
same,"Plant response rating, Ragweed",[2]; [14],10
same,"Plant response rating, Ragweed",[2]; [15],60
same,Blackgrass plant response rating,[3]; [17],5
same,Blackgrass plant response rating,[3]; [18],25
same,"Plant response rating, Blackgrass",[3]; [19],30
same,"Plant response rating, Blackgrass",[3]; [20],50
same,Oilseed Rape plant response rating,[4]; [18],80
same,"Plant response rating, Oilseed Rape",[4]; [19],95
same,"Plant response rating, Oilseed Rape",[4]; [20],95
same,Johnsongrass plant response rating,[5]; [18],35
same,"Plant response rating, Johnsongrass",[5]; [19],60
same,"Plant response rating, Johnsongrass",[5]; [20],60
same,"Foxtail, Giant plant response rating",[6]; [17],10
same,"Foxtail, Giant plant response rating",[6]; [18],10
same,"Plant response rating, Foxtail, Giant",[6]; [19],15
same,"Plant response rating, Foxtail, Giant",[6]; [20],40
same,Barnyardgrass plant response rating,[7]; [17],20
same,Barnyardgrass plant response rating,[7]; [18],25
same,"Plant response rating, Barnyardgrass",[7]; [19],25
same,"Plant response rating, Barnyardgrass",[7]; [20],45
same,Pigweed plant response rating,[8]; [18],98
same,"Plant response rating, Pigweed",[8]; [19],100
same,"Plant response rating, Pigweed",[8]; [20],100
same,Velvetleaf plant response rating,[9]; [18],80
same,"Plant response rating, Velvetleaf",[9]; [19],80
same,"Plant response rating, Velvetleaf",[9]; [20],85
same,"Sedge, Umbrella plant response rating",[10],90
same,Rice plant response rating,rice (Oryza sativa),45
same,Barnyardgrass plant response rating,[11],60
same,Ducksalad plant response rating,[12],90
Fc1cccc(Oc2ncc(Cl)cn2)c1-c1cc(C2CC2)on1 [Compound 130],"Plant response rating, Ryegrass, Italian",[1]; [14],20
same,"Plant response rating, Ryegrass, Italian",[1]; [15],60
same,"Ryegrass, Italian plant response rating",[1]; [24],50
same,"Plant response rating, Kochia",kochia (Kochia scoparia); [14],50
same,"Plant response rating, Kochia",kochia (Kochia scoparia); [15],90
same,Kochia plant response rating,kochia (Kochia scoparia); [24],70
same,"Plant response rating, Ragweed",[2]; [14],10
same,"Plant response rating, Ragweed",[2]; [15],60
same,Ragweed plant response rating,[2]; [24],20
same,Blackgrass plant response rating,[3]; [17],0
same,Blackgrass plant response rating,[3]; [18],5
same,"Plant response rating, Blackgrass",[3]; [19],20
same,"Plant response rating, Blackgrass",[3]; [20],30
same,Oilseed Rape plant response rating,[4]; [18],80
same,"Plant response rating, Oilseed Rape",[4]; [19],75
same,"Plant response rating, Oilseed Rape",[4]; [20],95
same,Johnsongrass plant response rating,[5]; [18],5
same,"Plant response rating, Johnsongrass",[5]; [19],5
same,"Plant response rating, Johnsongrass",[5]; [20],10
same,"Foxtail, Giant plant response rating",[6]; [17],5
same,"Foxtail, Giant plant response rating",[6]; [18],5
same,"Plant response rating, Foxtail, Giant",[6]; [19],10
same,"Plant response rating, Foxtail, Giant",[6]; [20],25
same,Barnyardgrass plant response rating,[7]; [17],10
same,Barnyardgrass plant response rating,[7]; [18],10
same,"Plant response rating, Barnyardgrass",[7]; [19],10
same,"Plant response rating, Barnyardgrass",[7]; [20],25
same,Pigweed plant response rating,[8]; [18],95
same,"Plant response rating, Pigweed",[8]; [19],98
same,"Plant response rating, Pigweed",[8]; [20],98
same,Velvetleaf plant response rating,[9]; [18],80
same,"Plant response rating, Velvetleaf",[9]; [19],75
same,"Plant response rating, Velvetleaf",[9]; [20],100
same,"Sedge, Umbrella plant response rating",[10],90
same,Rice plant response rating,rice (Oryza sativa),30
same,Barnyardgrass plant response rating,[11],65
same,Ducksalad plant response rating,[12],90
